The values below come from patent US10995091B2 (Proximagen, LLC, priority 2010, dated 2021).

In this experiment the target is T1, Human CXCR4 transfected HEK293 cells (Homo sapiens, UniProt P61073).
T1 construct: expressed in transfected cells; host or cells: HEK293
Briefly: CXCR4 functional calcium assay (calcium flux FLIPR, antagonism of SDF1 response). The format is cell-based. Particulars: CXCR4 functional activity, antagonism of SDF1 (EC50 concentration), read-out: CXCR4 fKi. Here is the method:
The functional activity of test compounds was routinely tested by measuring the ability of compounds to antagonize CXCR4 activity in a dose dependent manner, using a calcium flux Fluorescent Imaging Plate Reader FLIPR assay.
Human CXCR4 transfected HEK293 cells were cultured in Dulbecco's modified Eagles medium containing 4.5 g/L glucose, L-glutamine, pyruvate, 50 µg/mL Geneticin and 250 µg/mL hygromycin B and maintained at 37° C. in a humidified, 5% CO2 controlled atmosphere. Subcultivations were performed every 2-3 d.
At confluence the cells were lifted using Ca^2+ and Mg^2+ free PBS/0.02% (w/v) EDTA, spun at 1000 rpm for 3 min and resuspended at 2.5×10^5 cells/mL. Cells were plated into a 384 well, poly-d-lysine coated, black with clear bottomed plate (Becton Dickinson) at 7500 cells/well. The plates were incubated overnight at 37° C. under 5% CO2. On the day of the experiment the cells were washed with incubation Buffer (HBSS containing 2.5 mM probenecid, 0.1% w/v BSA and 10 mM HEPES, pH 7.4 at 37° C.). After washing, the cells were loaded with Fluo-4 AM dye (Molecular probes) at 2 µM containing 0.48 µg/mL pluronic acid for 60 min at 37° C. under 5% CO2. After thorough washing with incubation buffer the cells were preincubated for 10 min at 37° C. before use.
A combined agonist/antagonist protocol was used to measure changes in intracellular calcium concentration. Compound (antagonist) was added to the cell plate using a Fluorometric Imaging Plate Reader (FLIPR) (Molecular Devices, Sunnyvale, Calif., USA). Basal fluorescence was recorded every second for 10 seconds prior to compound addition (10 μl) and fluorescence recorded every second for 1 min then every 6 seconds for a further 1 min. SDF1[…] (EC50 concentration) was then added using the FLIPR and fluorescence recorded as described above. Curve-fitting and parameter estimation were carried out using GraphPad Prism 4.0 (GraphPad Software Inc., San Diego, Calif.).

Bounds are passed on as bounds.

T1 sequence (P61073 whole entry): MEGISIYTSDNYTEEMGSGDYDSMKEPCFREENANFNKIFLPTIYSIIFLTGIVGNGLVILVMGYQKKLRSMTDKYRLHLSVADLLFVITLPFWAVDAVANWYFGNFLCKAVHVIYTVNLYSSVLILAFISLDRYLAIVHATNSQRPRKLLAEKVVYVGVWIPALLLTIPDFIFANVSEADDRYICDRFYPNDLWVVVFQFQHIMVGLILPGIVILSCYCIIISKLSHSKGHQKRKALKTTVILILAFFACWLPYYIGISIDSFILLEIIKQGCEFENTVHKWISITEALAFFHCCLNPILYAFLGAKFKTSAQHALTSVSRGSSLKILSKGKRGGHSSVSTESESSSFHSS

With `Cc1nc(-c2cccc(N3CCCN(C4CCN(C(C)C)CC4)CC3)n2)[nH]c1C1CC1` [Example 121, 1-[6-(4-Cyclopropyl-5-methyl-1H-imidazol-2-yl)pyridine-2-yl]-4-[1-(propan-2-yl)piperidin-4-yl]-1,4-diazepane], the Ki is under 20 nM.
Regarding `O=C(Nc1cccnc1)c1cccc(N2CCCN(C3CCN(Cc4ccccc4Cl)CC3)CC2)n1` [Example 53], the Ki fell in the range of 20 to 100 nM.
Take `Cc1cnc(-c2cccc(N3CCCN(C4CCN(C(C)C)CC4)CC3)n2)[nH]1` [Example 107, 1-[6-(4-Methyl-1H-imidazol-2-yl)pyridine-2-yl]-4-[1-(propan-2-yl)piperidin-4-yl]-1,4-diazepane]: the Ki is 20 to 100 nM.
The figure for `Cc1nc(-c2cccc(N3CCCN(C4CCN(C5CCCC5)CC4F)CC3)n2)[nH]c1C1CC1` (stereo not drawn) [Example 214, 1-(1-Cyclopentyl-3-fluoropiperidin-4-yl)-4-[6-(4-cyclopropyl-5-methyl-1H-imidazol-2-yl)pyridin-2-yl]-1,4-diazepane] is 100 to 500 nM.
The figure for `C[C@H](c1ccccc1)N1CCC(N2CCCN(c3cccc(C(=O)NCC4CC4)n3)CC2)CC1` [Example 74, N-(Cyclopropylmethyl)-6-(4-{1-[(1R)-1-phenylethyl]piperidin-4-yl}-1,4-diazepan-1-yl)pyridine-2-carboxamide] is 100 to 500 nM; for `CC(C)N1CCC(N2CCCN(c3cccc(-c4nc5cnccc5[nH]4)n3)CC2)CC1` [Example 106, 1-(6-{3H-Imidazo[4,5-c]pyridin-2-yl}pyridin-2-yl)-4-[1-(propan-2-yl)piperidin-4-yl]-1,4-diazepane] it is under 20 nM.
On to `O=C(NCC1CC1)c1cccc(N2CCCN(C3CCN([C@@H]4CCc5ccccc54)CC3)CC2)n1` [Example 76, N-(Cyclopropylmethyl)-6-(4-{1-[(1R)-2,3-dihydro-1H-inden-1-yl]piperidin-4-yl}-1,4-diazepan-1-yl)pyridine-2-carboxamide], for which the Ki was 20 to 100 nM.
For `CCC(C)N1CCC(N2CCCN(c3cccc(C(=O)NCC4CC4)n3)CC2)CC1` (stereo not drawn) [Example 65, 6-{4-[1-(Butan-2-yl)piperidin-4-yl]-1,4-diazepan-1-yl}-N-(cyclopropylmethyl)pyridine-2-carboxamide] the value was under 20 nM; for `[2H]C1([2H])CCN(c2cccc(C(=O)Nc3ccncc3)n2)CCN1C1CCN(C2CCCC2)CC1` [Example 191, 6-[4-(1-Cyclopentylpiperidin-4-yl)-5,5-dihydrogenio-1,4-diazepan-1-yl]-N-(pyridin-4-yl)pyridine-2-carboxamide], under 20 nM; for `[2H]C1([2H])CCN(C2CCN([C@H](C)CC)CC2)CCN1c1cccc(C(=O)Nc2ccncc2)n1` [Example 176, 6-(4-{1-[(2R)-Butan-2-yl]piperidin-4-yl}-7,7-dihydrogenio-1,4-diazepan-1-yl)-N-(pyridine-4-yl)pyridine-2-carboxamide], under 20 nM.
For `Cc1nc(-c2cccc(NCCNC3CCN(C(C)C)CC3)n2)[nH]c1C1CC1` [Example 236, N-(2-{[6-(5-Cyclopropyl-4-methyl-1H-imidazol-2-yl)pyridin-2-yl]amino}ethyl)-1-(propan-2-yl)piperidin-4-amine] the value was 100 to 500 nM.
Regarding `CC(C)N1CCC(N2CCCN(c3cccc(-c4cc5ccccc5[nH]4)n3)CC2)CC1` [Example 100, 2-(6-{4-[1-(Propan-2-yl)piperidin-4-yl]-1,4-diazepan-1-yl}pyridine-2-yl)-1H-indole], the Ki fell in the range of 20 to 100 nM.
As to `CC(C)N1CCC(N2CCCN(c3cccc(-c4nc5ccc(C#N)cc5[nH]4)n3)CC2)CC1` [Example 149, 2-(6-{4-[1-(Propan-2-yl)piperidin-4-yl]-1,4-diazepan-1-yl}pyridine-2-yl)-1H-1,3-benzodiazole-6-carbonitrile], the Ki was under 20 nM.
For `CC(C)N1CCC(N2CCCN(c3cccc(C(=O)NCCN(C)C)n3)CC2)CC1` [Example 16, N-[2-(Dimethylamino)ethyl]-6-{4-[1-(propan-2-yl)piperidin-4-yl]-1,4-diazepan-1-yl}pyridine-2-carboxamide] the value was 100 to 500 nM; for `O=C(NCC1CC1)c1cccc(N2CCCN(C3CCN(Cc4ccc(F)cc4Cl)CC3)CC2)n1` [Example 135], under 20 nM.
Consider `CC(C)N1CCC(N2CCCN(c3cccc(-c4c[nH]c5ncccc45)n3)CC2)CC1` [Example 101, 1-[1-(Propan-2-yl)piperidin-4-yl]-4-(6-{1H-pyrrolo[2,3-b]pyridine-3-yl}pyridine-2-yl)-1,4-diazepane], for which the Ki lay within 100 to 500 nM.
The figure for `C[C@H](N1CCC(N2CCCN(c3cccc(C(=O)NCc4nccs4)n3)CC2)CC1)C(F)(F)F` [Example 94, N-(1,3-Thiazol-2-ylmethyl)-6-(4-{1-[(2S)-1,1,1-trifluoropropan-2-yl]piperidin-4-yl}-1,4-diazepan-1-yl)pyridine-2-carboxamide] is 100 to 500 nM; for `O=C(NCc1ccncc1)c1cccc(N2CCCN(C3CCN(Cc4ccccc4Cl)CC3)CC2)n1` [Example 56, 6-(4-{1-[(2-Chlorophenyl)methyl]piperidin-4-yl}-1,4-diazepan-1-yl)-N-(pyridine-4-ylmethyl)pyridine-2-carboxamide] it is under 20 nM.
The figure for `CC(C)N1CCC(N2CCCN(c3cccc(C(=O)NCc4nccs4)n3)CC2)CC1` [Example 39, 6-{4-[1-(Propan-2-yl)piperidin-4-yl]-1,4-diazepan-1-yl} N-(1,3-thiazol-2-ylmethyl)pyridine-2-carboxamide] is 20 to 100 nM.
For the compound `Cc1cc(NC(=O)c2cccc(N3CCCN(C4CCN(C(C)C)CC4)CC3)n2)ccn1` [Example 86, N-(2-Methylpyridin-4-yl)-6-{4-[1-(propan-2-yl)piperidin-4-yl]-1,4-diazepan-1-yl}pyridine-2-carboxamide], the Ki was under 20 nM.
For the compound `C[C@H](N1CCC(N2CCCN(c3cccc(C(=O)NCc4cccnc4)n3)CC2)CC1)C(F)(F)F` [Example 89, N-(Pyridin-3-ylmethyl)-6-(4-{1-[(2S)-1,1,1-trifluoropropan-2-yl]piperidin-4-yl}-1,4-diazepan-1-yl)pyridine-2-carboxamide], the Ki was in the range of 20 to 100 nM.
The figure for `N#Cc1cccc(N2CCCN(C3CCN(Cc4ccccc4Cl)CC3)CC2)n1` [Example 259, 6-(4-{1-[(2-Chlorophenyl)methyl]piperidin-4-yl}-1,4-diazepan-1-yl)pyridine-2-carbonitrile] is 500 to 1000 nM.
For `CC(C)N1CCN(C)[C@H](CN2CCCN(c3cccc(C(=O)Nc4ccncc4)n3)CC2)C1` [Example 202, 6-(4-{[(2R)-1-Methyl-4-(propan-2-yl)piperazin-2-yl]methyl}-1,4-diazepan-1-yl)-N-(pyridin-4-yl)pyridine-2-carboxamide] the value was 500 to 1000 nM; for `CC(C)N1CCC(N2CCCN(c3cccc(C(=O)NCCn4ccnc4)n3)CC2)CC1` [Example 45, N-[2-(1H-Imidazol-1-yl)ethyl]-6-{4-[1-(propan-2-yl)piperidin-4-yl]-1,4-diazepan-1-yl}pyridine-2-carboxamide], 20 to 100 nM.
The figure for `CC(C)N1CCO[C@H](CN2CCCN(c3cccc(C(=O)Nc4ccncc4)n3)CC2)C1` [Example 244, 6-(4-{[(2R)-4-(Propan-2-yl)morpholin-2-yl]methyl}-1,4-diazepan-1-yl)-N-(pyridin-4-yl)pyridine-2-carboxamide] is 20 to 100 nM.
Take `COCCN1CCC(N2CCCN(c3cccc(C(=O)NCC4CC4)n3)CC2)CC1` [Example 71, N-(Cyclopropylmethyl)-6-{4-[1-(2-methoxyethyl)piperidin-4-yl]-1,4-diazepan-1-yl}pyridine-2-carboxamide]: the Ki lay within 500 to 1000 nM.
As to `CC(C)N1CCC(N2CCCN(c3cccc(C(=O)Nc4cccnc4)n3)CC2)CC1` [Example 29, 6-{4-[1-(Propan-2-yl)piperidin-4-yl]-1,4-diazepan-1-yl}-N-(pyridin-3-yl)pyridine-2-carboxamide], the Ki fell in the range of 20 to 100 nM.
The figure for `[2H]C1([2H])CCN(C2CCN(C(C)C)CC2F)CCN1c1cccc(C(=O)Nc2ccncc2)n1` (stereo not drawn) [Example 211, 6-{4-[3-Fluoro-1-(propan-2-yl)piperidin-4-yl]-7,7-dihydrogenio-1,4-diazepan-1-yl}-N-(pyridin-4-yl)pyridine-2-carboxamide] is 20 to 100 nM; for `O=C(Nc1ccncc1)c1cccc(N2CCCN(C3CCN(C4CCCC4)CC3)CC2)n1` [Example 83, 6-[4-(1-Cyclopentylpiperidin-4-yl)-1,4-diazepan-1-yl]-N-(pyridine-4-yl)pyridine-2-carboxamide] it is under 20 nM.
The figure for `CC(C)N1CCC(N2CCCN(c3cccc(C(=O)NCC(F)(F)F)n3)CC2)CC1` [Example 10, 6-{4-[1-(Propan-2-yl)piperidin-4-yl]-1,4-diazepan-1-yl}-N-(2,2,2-trifluoroethyl)pyridine-2-carboxamide] is 100 to 500 nM.
